# Test results reported in US10816552B2 (The Governing Council of the University of Toronto, priority 2014, dated 2020).
# How the values were obtained:
# [1] = Empirical log P by UV-Vis assay; type: physicochemical; details: aqueous buffer; UV-Vis assay conditions
# [2] = Solubility observations; type: physicochemical
# [3] = test system: HCT116 cells; assay: Mass cytometry hypoxia labelling (130Te signal); type: cell-based
# Source text: FIGS. 4A-E show a schematic representation and density maps and plots. FIG. 4A is a schematic representation of Telox/Telox2 cell labelling for analysis via mass cytometry on a second-generation CyTOF instrument. FIG. 4b) is a density map of signal event length vs. ^130Te signal (arbitrary units). FIG. 4c) is a density plot output from the top-right gate in b) of ^193Ir signal (arbitrary units) vs. ^103Rh signal (arbitrary units). More than 93% of detected events fall in the square gate. FIG. 4d) is a density plot output from the bottom-left gate in b) of ^193Ir signal (arbitrary units) vs. ^103Rh signal (arbitrary units). More than 89% of detected events fall in the square gate. FIG. 4e) is a population histograms of cell ^130Te content (arbitrary units). Oxygen concentrations are listed as numerical percentages, P=Pimonidazole (100 μM). Blue and red histograms are Pimonidazole-negative controls. Orange and green histograms are Pimonidazole- positive competition experiments. Note: warmer colors in density plots indicate higher cell population density.
# FIGS. 8A and B show a) the absolute ^130Te signal as a function of concentration as determined by mass cytometry analysis of HCT116 cells incubated with the exemplary compound, Telox-2, for 3 hours in either near-anoxic (˜0% O2), hypoxic (˜1% O2) or normoxic (21% O2) atmosphere; and b) the signal-to-noise (fold-change) representation of the data presented in part a.
# FIGS. 9A-D show a) Absolute ^130Te signal as a function of time as determined by mass cytometry analysis of HCT116 cells incubated with 10 μM of the exemplary compound,Telox-2 (constant exposure), in either near-anoxic (˜0% O2), hypoxic (˜1% O2) or normoxic (21% O2) atmosphere; b) the signal-to-noise (fold-change) representation of the data presented in part a; and c) the absolute ^130Te signal as a function of time as determined by mass cytometry analysis of HCT116 cells incubated with 10 μM Telox-2 for 3 hours followed by replacement of Telox-2-containing media with fresh media in either near-anoxic (˜0% O2), hypoxic (˜1% O2) or normoxic (21% O2) atmosphere; and d) the signal-to-noise (fold-change) representation of the data presented in part c.
# HCT116 (500,000) cells were seeded in 60 mm plastic petri dishes (Corning Inc., NY) and incubated for 24 h at 37° C., 21% O2/5% CO2. The cells were transferred to hypoxia chambers (H35/H85 hypoxia workstation, Don Whitley Scientific) maintained at 1%/0.2% or <0.02% O2 for 3 h. Hypoxia experiments (<0.02% O2) were performed by seeding the cells in 60 mm glass plates (Corning Inc., NY).
# (§1) HCT 116 cells (see sections i and ii) were incubated in media containing Telox or Telox2 (100 μM, added as a neat solution in sterile DMSO; final [DMSO]=0.1%) for 3 hours under atmosphere containing an appropriate concentration of O2. Following incubation, the media was removed, cells were washed with sterile PBS, and then separated from the incubation plate via trypsinization (37° C., 10 min) and gentle scraping. The cell suspension was pelleted and resuspended in PBS containing β-ME (1.0 mL, 100 mM). Cells were pelleted, resuspended in PBS (900 μL, no β-ME), and fixed with formaldehyde (100 μL, 37% solution) for 25 minutes. Following fixation, cells were pelleted, resuspended in PBS containing β-ME (1.0 mL, 100 mM), and pelleted once again. Cells were then resuspended in PBS ([…], no β-ME) and incubated with either the Ir-containing nucleic acid intercalator (hypoxic cells) or the Rh containing nucleic acid intercalator (normoxic cells) (10 μL, 100 μM solution in sterile PBS) for 20 minutes. Cells were then pelleted and resuspended in PBS (1.0 mL, no β-ME) twice. Cell pellets were then resuspended in PBS containing ^151/153EU beads (1/10 dilution of CyTOF® calibration beads, DVS Sciences, 1.0-2.5 mL depending on pellet size). The two cells samples were then combined (250 μL of each) and 250 μL of the resultant sample was injected onto a second-generation CyTOF® instrument for MC analysis. […]
# [4] = test system: HCT116 cells; assay: Competitive labelling with pimonidazole (mass cytometry); type: cell-based; details: HCT116, Telox-2 10 μM, near-anoxic
# Method: Concentration Telox-2=10 μM. The absolute ^130Te signal was measured using mass cytometry.
# as §1, with “size).” for “size). The two cells samples were then combined (250 μL of each) and 250 μL of the resultant sample was injected onto a second-generation CyTOF® instrument for MC analysis.”
smiles,measurement,setting,value
"O=[N+]([O-])c1nccn1CCc1ccc[te]1 [Telox-2, 2-nitro-1-(2-(tellurophen-2-yl)ethyl)-1H-imidazole]",logP,[1],1.3
same,"solubility, in words",[2],unusually high water solubility
same,"signal-to-noise vs incubation time, constant exposure","[3]; HCT116, 10 μM, near-anoxic and moderately hypoxic vs normoxic control",enhanced as incubation time increases
same,signal-to-noise under moderately hypoxic conditions vs near-anoxic,"[3]; HCT116, 1% O2",significantly lower
same,loss of probe-protein conjugates after pulsed exposure,"[3]; HCT116, 3 hours exposure then fresh media up to additional 21 hours",exponential-type decay
same,optimal probe concentration to maximize signal-to-noise,"[3]; HCT116, 3 hours, normoxic vs near-anoxic",10 µM
same,labelling under competitive conditions with pimonidazole,[4],reduced in a (pimonidazole) dose-dependent manner
